11 compounds from ChEMBL document CHEMBL4152382, “Discovery of Tarantula Venom-Derived NaV1.7-Inhibitory JzTx-V Peptide 5-Br-Trp24 Analogue AM-6120 with Systemic Block of Histamine-Induced Pruritis” (J Med Chem, 2018) can be followed below.

The target in the assay is Sodium channel protein type 9 subunit alpha (Homo sapiens, UniProt Q15858). Kind of assay: Inhibition of human Nav1.7 expressed in HEK293 cells at holding potential of -125 mV […] by patchxpress-based electrophysiology assay. The class given is cell-based.
Sodium channel protein type 9 subunit alpha, sequence (Q15858 whole entry): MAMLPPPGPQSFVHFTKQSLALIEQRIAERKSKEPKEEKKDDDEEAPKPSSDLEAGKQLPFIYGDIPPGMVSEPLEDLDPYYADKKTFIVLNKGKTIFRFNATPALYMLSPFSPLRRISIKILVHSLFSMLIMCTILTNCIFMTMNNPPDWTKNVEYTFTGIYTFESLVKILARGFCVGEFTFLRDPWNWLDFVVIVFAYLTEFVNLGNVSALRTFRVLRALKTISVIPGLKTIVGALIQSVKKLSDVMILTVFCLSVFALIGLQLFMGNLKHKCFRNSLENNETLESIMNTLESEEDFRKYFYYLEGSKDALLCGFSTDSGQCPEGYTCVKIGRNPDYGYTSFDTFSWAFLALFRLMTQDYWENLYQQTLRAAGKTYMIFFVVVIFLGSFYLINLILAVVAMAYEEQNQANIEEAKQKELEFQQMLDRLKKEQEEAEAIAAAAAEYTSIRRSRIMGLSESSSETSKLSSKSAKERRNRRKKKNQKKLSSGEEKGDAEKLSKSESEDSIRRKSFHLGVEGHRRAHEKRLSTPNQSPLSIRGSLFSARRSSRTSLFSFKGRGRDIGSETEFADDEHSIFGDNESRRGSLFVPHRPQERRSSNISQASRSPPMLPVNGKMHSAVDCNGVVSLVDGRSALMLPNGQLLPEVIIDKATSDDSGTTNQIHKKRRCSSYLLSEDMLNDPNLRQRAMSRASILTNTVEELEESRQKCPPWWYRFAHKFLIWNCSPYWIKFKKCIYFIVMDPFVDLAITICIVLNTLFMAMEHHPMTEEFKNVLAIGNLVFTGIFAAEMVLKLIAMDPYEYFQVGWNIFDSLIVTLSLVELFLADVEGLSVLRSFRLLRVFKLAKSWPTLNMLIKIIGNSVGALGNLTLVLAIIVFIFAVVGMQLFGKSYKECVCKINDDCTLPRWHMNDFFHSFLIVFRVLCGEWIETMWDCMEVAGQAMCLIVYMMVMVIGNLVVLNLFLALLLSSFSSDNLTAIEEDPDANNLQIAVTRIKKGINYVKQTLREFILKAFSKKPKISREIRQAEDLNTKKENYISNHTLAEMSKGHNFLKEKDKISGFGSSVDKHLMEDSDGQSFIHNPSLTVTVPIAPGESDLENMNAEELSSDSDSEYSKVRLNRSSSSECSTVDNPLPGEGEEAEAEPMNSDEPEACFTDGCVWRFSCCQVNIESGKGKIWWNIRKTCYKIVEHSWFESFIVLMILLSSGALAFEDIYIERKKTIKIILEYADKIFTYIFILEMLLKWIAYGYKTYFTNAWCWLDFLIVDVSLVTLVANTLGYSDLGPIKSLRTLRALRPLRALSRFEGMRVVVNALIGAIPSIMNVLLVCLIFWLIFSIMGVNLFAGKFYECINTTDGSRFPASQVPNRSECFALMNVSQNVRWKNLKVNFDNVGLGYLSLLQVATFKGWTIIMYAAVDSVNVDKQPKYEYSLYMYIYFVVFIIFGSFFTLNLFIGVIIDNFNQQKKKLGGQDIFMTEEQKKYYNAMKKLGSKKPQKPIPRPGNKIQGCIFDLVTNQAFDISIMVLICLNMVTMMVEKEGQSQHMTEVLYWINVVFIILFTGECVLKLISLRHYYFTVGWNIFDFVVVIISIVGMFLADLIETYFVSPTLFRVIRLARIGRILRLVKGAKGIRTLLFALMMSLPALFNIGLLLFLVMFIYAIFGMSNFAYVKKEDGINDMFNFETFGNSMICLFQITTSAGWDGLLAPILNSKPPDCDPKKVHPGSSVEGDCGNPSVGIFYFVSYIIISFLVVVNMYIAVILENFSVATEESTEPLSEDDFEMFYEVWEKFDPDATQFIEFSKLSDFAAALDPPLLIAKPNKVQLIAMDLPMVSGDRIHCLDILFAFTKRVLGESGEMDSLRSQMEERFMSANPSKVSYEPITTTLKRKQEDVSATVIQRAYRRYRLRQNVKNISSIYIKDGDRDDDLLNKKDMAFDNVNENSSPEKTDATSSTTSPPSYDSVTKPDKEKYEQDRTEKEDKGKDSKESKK
What is called IC50 is the point on the concentration scale where inhibition reaches its midpoint. The low end stands for greater potency in that assay, the high end for weaker potency in that assay. `C#CC[C@H](N)C(=O)N[C@@H](Cc1ccc(O)cc1)C(=O)N[C@H]1CSSC[C@@H]2NC(=O)[C@@H]3CSSC[C@@H](C(=O)N[C@@H](CCCNC(=N)N)C(=O)N[C@@H](CCCCN)C(=O)N[C@@H](CCC(=O)O)C(=O)N[C@H](C(N)=O)[C@@H](C)CC)NC(=O)[C@H](Cc4c[nH]c5ccccc45)NC(=O)[C@H](CCCC)NC(=O)[C@H](CCCCN)NC(=O)[C@H](CSSC[C@H](NC(=O)[C@H]([C@@H](C)O)NC(=O)[C@H](Cc4c[nH]c5ccccc45)NC(=O)[C@H](CCCC)NC(=O)[C@H](Cc4c[nH]c5ccccc45)NC(=O)[C@H](CCCCN)NC(=O)[C@H](CCC(N)=O)NC1=O)C(=O)N[C@@H](CC(=O)O)C(=O)N[C@@H](CO)C(=O)N[C@@H](CCCCN)C(=O)N[C@@H](CCCNC(=N)N)C(=O)N[C@@H](C)C(=O)N3)NC(=O)[C@H](CCCNC(=N)N)NC(=O)[C@H](CC(C)C)NC(=O)CNC(=O)[C@H](CCC(=O)O)NC2=O` gave an IC50 of 1.7 nM.
Next, `C#CC[C@H](N)C(=O)N[C@@H](Cc1ccc(O)cc1)C(=O)N[C@H]1CSSC[C@@H]2NC(=O)[C@@H]3CSSC[C@@H](C(=O)N[C@@H](CCCNC(=N)N)C(=O)N[C@@H](CCCCN)C(=O)N[C@@H](CCC(=O)O)C(=O)N[C@H](C(N)=O)[C@@H](C)CC)NC(=O)[C@H](Cc4c[nH]c5ccccc45)NC(=O)[C@H](CC(C)C)NC(=O)[C@H](CCCCN)NC(=O)[C@H](CSSC[C@H](NC(=O)[C@H]([C@@H](C)O)NC(=O)[C@H](Cc4c[nH]c5ccccc45)NC(=O)[C@H](CCCC)NC(=O)[C@H](Cc4c[nH]c5ccc(Br)cc45)NC(=O)[C@H](CCCCN)NC(=O)[C@H](CCC(N)=O)NC1=O)C(=O)N[C@@H](CC(=O)O)C(=O)N[C@@H](CO)C(=O)N[C@@H](CCCCN)C(=O)N[C@@H](CCCNC(=N)N)C(=O)N[C@@H](C)C(=O)N3)NC(=O)[C@H](CCCNC(=N)N)NC(=O)[C@H](CC(C)C)NC(=O)CNC(=O)[C@H](CCC(=O)O)NC2=O`: 22 nM; `C#CC[C@H](N)C(=O)N[C@@H](Cc1ccc(O)cc1)C(=O)N[C@H]1CSSC[C@@H]2NC(=O)[C@@H]3CSSC[C@@H](C(=O)N[C@@H](CCCNC(=N)N)C(=O)N[C@@H](CCCCN)C(=O)N[C@@H](CCC(=O)O)C(=O)N[C@H](C(N)=O)[C@@H](C)CC)NC(=O)[C@H](Cc4c[nH]c5ccc(Br)cc45)NC(=O)[C@H](CC(C)C)NC(=O)[C@H](CCCCN)NC(=O)[C@H](CSSC[C@H](NC(=O)[C@H]([C@@H](C)O)NC(=O)[C@H](Cc4c[nH]c5ccccc45)NC(=O)[C@H](CCCC)NC(=O)[C@H](CCc4ccccc4)NC(=O)[C@H](CCCCN)NC(=O)[C@H](CCC(N)=O)NC1=O)C(=O)N[C@@H](CC(=O)O)C(=O)N[C@@H](CO)C(=O)N[C@@H](CCCCN)C(=O)N[C@@H](CCCNC(=N)N)C(=O)N[C@@H](C)C(=O)N3)NC(=O)[C@H](CCCNC(=N)N)NC(=O)[C@H](CC(C)C)NC(=O)CNC(=O)[C@H](CCC(=O)O)NC2=O`: 1 nM; `C#CC[C@H](NC(=O)[C@@H](N)CCC(=O)O)C(=O)N[C@H]1CSSC[C@@H]2NC(=O)[C@@H]3CSSC[C@@H](C(=O)N[C@@H](CCCNC(=N)N)C(=O)N[C@@H](CCCCN)C(=O)N[C@@H](CCC(=O)O)C(=O)N[C@H](C(N)=O)[C@@H](C)CC)NC(=O)[C@H](Cc4c[nH]c5ccc(Br)cc45)NC(=O)[C@H](CC(C)C)NC(=O)[C@H](CCCCN)NC(=O)[C@H](CSSC[C@H](NC(=O)[C@H]([C@@H](C)O)NC(=O)[C@H](Cc4c[nH]c5ccccc45)NC(=O)[C@H](CCCC)NC(=O)[C@H](Cc4c[nH]c5ccccc45)NC(=O)[C@H](CCCCN)NC(=O)[C@H](CCC(N)=O)NC1=O)C(=O)N[C@@H](CC(=O)O)C(=O)N[C@@H](CO)C(=O)N[C@@H](CCCCN)C(=O)N[C@@H](CCCNC(=N)N)C(=O)N[C@@H](C)C(=O)N3)NC(=O)[C@H](CCCNC(=N)N)NC(=O)[C@H](CC(C)C)NC(=O)CNC(=O)[C@H](CCC(=O)O)NC2=O`: 0.3 nM.
Next, `C#CC[C@H](NC(=O)[C@H](C)N)C(=O)N[C@H]1CSSC[C@@H]2NC(=O)[C@@H]3CSSC[C@@H](C(=O)N[C@@H](CCCNC(=N)N)C(=O)N[C@@H](CCCCN)C(=O)N[C@@H](CCC(=O)O)C(=O)N[C@H](C(N)=O)[C@@H](C)CC)NC(=O)[C@H](Cc4c[nH]c5ccc(Br)cc45)NC(=O)[C@H](CC(C)C)NC(=O)[C@H](CCCCN)NC(=O)[C@H](CSSC[C@H](NC(=O)[C@H]([C@@H](C)O)NC(=O)[C@H](Cc4c[nH]c5ccccc45)NC(=O)[C@H](CCCC)NC(=O)[C@H](Cc4c[nH]c5ccccc45)NC(=O)[C@H](CCCCN)NC(=O)[C@H](CCC(N)=O)NC1=O)C(=O)N[C@@H](CC(=O)O)C(=O)N[C@@H](CO)C(=O)N[C@@H](CCCCN)C(=O)N[C@@H](CCCNC(=N)N)C(=O)N[C@@H](C)C(=O)N3)NC(=O)[C@H](CCCNC(=N)N)NC(=O)[C@H](CC(C)C)NC(=O)CNC(=O)[C@H](CCC(=O)O)NC2=O`: 1 nM.
Next, `C#CC[C@H](N)C(=O)N[C@@H](Cc1ccc(O)cc1)C(=O)N[C@H]1CSSC[C@@H]2NC(=O)[C@@H]3CSSC[C@@H](C(=O)N[C@@H](CCCNC(=N)N)C(=O)N[C@@H](CCCCN)C(=O)N[C@@H](CCC(=O)O)C(=O)N[C@H](C(N)=O)[C@@H](C)CC)NC(=O)[C@H](Cc4c[nH]c5ccccc45)NC(=O)[C@H](C4CCCCC4)NC(=O)[C@H](CCCCN)NC(=O)[C@H](CSSC[C@H](NC(=O)[C@H]([C@@H](C)O)NC(=O)[C@H](Cc4c[nH]c5ccccc45)NC(=O)[C@H](CCCC)NC(=O)[C@H](Cc4c[nH]c5ccccc45)NC(=O)[C@H](CCCCN)NC(=O)[C@H](CCC(N)=O)NC1=O)C(=O)N[C@@H](CC(=O)O)C(=O)N[C@@H](CO)C(=O)N[C@@H](CCCCN)C(=O)N[C@@H](CCCNC(=N)N)C(=O)N[C@@H](C)C(=O)N3)NC(=O)[C@H](CCCNC(=N)N)NC(=O)[C@H](CC(C)C)NC(=O)CNC(=O)[C@H](CCC(=O)O)NC2=O`: 0.5 nM.
Consider `C#CC[C@H](N)C(=O)N[C@@H](Cc1ccc(O)cc1)C(=O)N[C@H]1CSSC[C@@H]2NC(=O)[C@@H]3CSSC[C@@H](C(=O)N[C@@H](CCCNC(=N)N)C(=O)N[C@@H](CCCCN)C(=O)N[C@@H](CCC(=O)O)C(=O)N[C@H](C(N)=O)[C@@H](C)CC)NC(=O)[C@H](Cc4c[nH]c5c(Br)cccc45)NC(=O)[C@H](CC(C)C)NC(=O)[C@H](CCCCN)NC(=O)[C@H](CSSC[C@H](NC(=O)[C@H]([C@@H](C)O)NC(=O)[C@H](Cc4c[nH]c5ccccc45)NC(=O)[C@H](CCCC)NC(=O)[C@H](Cc4c[nH]c5ccccc45)NC(=O)[C@H](CCCCN)NC(=O)[C@H](CCC(N)=O)NC1=O)C(=O)N[C@@H](CC(=O)O)C(=O)N[C@@H](CO)C(=O)N[C@@H](CCCCN)C(=O)N[C@@H](CCCNC(=N)N)C(=O)N[C@@H](C)C(=O)N3)NC(=O)[C@H](CCCNC(=N)N)NC(=O)[C@H](CC(C)C)NC(=O)CNC(=O)[C@H](CCC(=O)O)NC2=O`, for which the concentration for half-maximal inhibition (IC50) is 24 nM.
Take `C#CC[C@H](N)C(=O)N[C@@H](Cc1ccc(O)cc1)C(=O)N[C@H]1CSSC[C@@H]2NC(=O)[C@@H]3CSSC[C@@H](C(=O)N[C@@H](CCCNC(=N)N)C(=O)N[C@@H](CCCCN)C(=O)N[C@@H](CCC(=O)O)C(=O)N[C@@H](CCc4ccccc4)C(N)=O)NC(=O)[C@H](Cc4c[nH]c5ccc(Br)cc45)NC(=O)[C@H](CC(C)C)NC(=O)[C@H](CCCCN)NC(=O)[C@H](CSSC[C@H](NC(=O)[C@H]([C@@H](C)O)NC(=O)[C@H](Cc4c[nH]c5ccccc45)NC(=O)[C@H](CCCC)NC(=O)[C@H](Cc4c[nH]c5ccccc45)NC(=O)[C@H](CCCCN)NC(=O)[C@H](CCC(N)=O)NC1=O)C(=O)N[C@@H](CC(=O)O)C(=O)N[C@@H](CO)C(=O)N[C@@H](CCCCN)C(=O)N[C@@H](CCCNC(=N)N)C(=O)N[C@@H](C)C(=O)N3)NC(=O)[C@H](CCCNC(=N)N)NC(=O)[C@H](CC(C)C)NC(=O)CNC(=O)[C@H](CCC(=O)O)NC2=O`: 1.1 nM corresponded to half-maximal inhibition (IC50).
Next, `C#CC[C@H](N)C(=O)N[C@@H](Cc1ccc(O)cc1)C(=O)N[C@H]1CSSC[C@@H]2NC(=O)[C@@H]3CSSC[C@@H](C(=O)N[C@@H](CCCNC(=N)N)C(=O)N[C@@H](CCCCN)C(=O)N[C@@H](CCC(=O)O)C(=O)N[C@H](C(N)=O)[C@@H](C)CC)NC(=O)[C@H](Cc4c[nH]c5ccccc45)NC(=O)[C@H](CC(C)C)NC(=O)[C@H](CCCCN)NC(=O)[C@H](CSSC[C@H](NC(=O)[C@H]([C@@H](C)O)NC(=O)[C@H](CCc4ccccc4)NC(=O)[C@H](CCCC)NC(=O)[C@H](Cc4c[nH]c5ccccc45)NC(=O)[C@H](CCCCN)NC(=O)[C@H](CCC(N)=O)NC1=O)C(=O)N[C@@H](CC(=O)O)C(=O)N[C@@H](CO)C(=O)N[C@@H](CCCCN)C(=O)N[C@@H](CCCNC(=N)N)C(=O)N[C@@H](C)C(=O)N3)NC(=O)[C@H](CCCNC(=N)N)NC(=O)[C@H](CC(C)C)NC(=O)CNC(=O)[C@H](CCC(=O)O)NC2=O`: 6.8 nM; `C#CC[C@H](N)C(=O)N[C@@H](Cc1ccc(O)cc1)C(=O)N[C@H]1CSSC[C@@H]2NC(=O)[C@@H]3CSSC[C@@H](C(=O)N[C@@H](CCCNC(=N)N)C(=O)N[C@@H](CCCCN)C(=O)N[C@@H](CCC(=O)O)C(=O)N[C@H](C(N)=O)[C@@H](C)CC)NC(=O)[C@H](Cc4c[nH]c5ccccc45)NC(=O)[C@H](CC(C)C)NC(=O)[C@H](CCCCN)NC(=O)[C@H](CSSC[C@H](NC(=O)[C@H]([C@@H](C)O)NC(=O)[C@H](Cc4c[nH]c5ccccc45)NC(=O)[C@H](CCCC)NC(=O)[C@H](Cc4ccc5ccccc5c4)NC(=O)[C@H](CCCCN)NC(=O)[C@H](CCC(N)=O)NC1=O)C(=O)N[C@@H](CC(=O)O)C(=O)N[C@@H](CO)C(=O)N[C@@H](CCCCN)C(=O)N[C@@H](CCCNC(=N)N)C(=O)N[C@@H](C)C(=O)N3)NC(=O)[C@H](CCCNC(=N)N)NC(=O)[C@H](CC(C)C)NC(=O)CNC(=O)[C@H](CCC(=O)O)NC2=O`: 22 nM; `C#CC[C@H](N)C(=O)N[C@@H](Cc1ccc(O)cc1)C(=O)N[C@H]1CSSC[C@@H]2NC(=O)[C@@H]3CSSC[C@@H](C(=O)N[C@@H](CCCNC(=N)N)C(=O)N[C@@H](CCCCN)C(=O)N[C@@H](CCC(=O)O)C(=O)N[C@@H](CC4CCCCC4)C(N)=O)NC(=O)[C@H](Cc4c[nH]c5ccccc45)NC(=O)[C@H](CC(C)C)NC(=O)[C@H](CCCCN)NC(=O)[C@H](CSSC[C@H](NC(=O)[C@H]([C@@H](C)O)NC(=O)[C@H](Cc4c[nH]c5ccccc45)NC(=O)[C@H](CCCC)NC(=O)[C@H](Cc4c[nH]c5ccccc45)NC(=O)[C@H](CCCCN)NC(=O)[C@H](CCC(N)=O)NC1=O)C(=O)N[C@@H](CC(=O)O)C(=O)N[C@@H](CO)C(=O)N[C@@H](CCCCN)C(=O)N[C@@H](CCCNC(=N)N)C(=O)N[C@@H](C)C(=O)N3)NC(=O)[C@H](CCCNC(=N)N)NC(=O)[C@H](CC(C)C)NC(=O)CNC(=O)[C@H](CCC(=O)O)NC2=O`: 0.6 nM.
